Test results from US12209144B2, “Cyclic peptides as proprotein convertase subtilisin/kexin type 9 (PCSK9) inhibitors for the treatment of metabolic disorders” (Novartis AG, priority 2018, dated 2025).
pIC50: −log10 of the molar value. Bridge positions count the residues as written; N and C are the ends. Square brackets hold non-standard residues; d marks the D form. Peptide text beside a SMILES is read from it. Phe(4-CF3) = N[C@@H](Cc1ccc(C(F)(F)F)cc1)C(=O)O; Bip = N[C@@H](Cc1ccc(-c2ccccc2)cc1)C(=O)O; NMeF = CN[C@@H](Cc1ccccc1)C(=O)O; NMeA = CN[C@@H](C)C(=O)O

Molecular target: human PCSK9 (Homo sapiens, UniProt Q8NBP7)
Test: PCSK9 ligand binding assay (TR-FRET): interference with binding of human PCSK9 to human LDLR
Details: for Maximum % inhibition: PCSK9 FRET assay, efficacy (Amax), 0% = DMSO, 100% = 1 uM unlabeled human PCSK9; for pIC50: TR-FRET, Human PCSK9 Alexa Fluor 647 and Human LDLR extracellular domain-Europium Kryptate

Sequence of human PCSK9 (Q8NBP7 153-692): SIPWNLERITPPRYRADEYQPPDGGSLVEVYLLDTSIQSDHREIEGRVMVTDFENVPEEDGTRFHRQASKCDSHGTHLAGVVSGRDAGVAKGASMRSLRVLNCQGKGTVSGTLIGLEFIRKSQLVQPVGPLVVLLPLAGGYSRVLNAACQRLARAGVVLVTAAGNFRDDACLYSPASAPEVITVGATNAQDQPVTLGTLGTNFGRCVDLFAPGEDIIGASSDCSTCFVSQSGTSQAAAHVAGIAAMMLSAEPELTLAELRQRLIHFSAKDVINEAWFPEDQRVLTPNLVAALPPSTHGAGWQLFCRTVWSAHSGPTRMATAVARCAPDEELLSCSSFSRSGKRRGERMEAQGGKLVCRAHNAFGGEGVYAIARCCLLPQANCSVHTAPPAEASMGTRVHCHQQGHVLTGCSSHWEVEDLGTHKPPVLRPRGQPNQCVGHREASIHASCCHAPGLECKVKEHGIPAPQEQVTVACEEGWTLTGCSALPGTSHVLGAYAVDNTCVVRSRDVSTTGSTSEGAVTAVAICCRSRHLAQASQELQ
Sequence of human PCSK9 (Q8NBP7 31-152 partner limits assumed): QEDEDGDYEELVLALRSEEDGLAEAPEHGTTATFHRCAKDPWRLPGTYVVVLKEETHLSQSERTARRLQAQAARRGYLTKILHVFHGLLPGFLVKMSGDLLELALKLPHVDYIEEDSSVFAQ

SMILES | Maximum % inhibition [%] | pIC50
CC(C)[C@@H]1NC(=O)[C@H](Cc2ccccc2)NC(=O)CSC[C@@H](C(=O)NCC(N)=O)NC(=O)[C@@H]2CCCN2C(=O)[C@H](CO)NC(=O)[C@H](CCC(=O)O)NC(=O)[C@H](C)N(C)C(=O)[C@H](Cc2ccc(C(F)(F)F)cc2)NC(=O)[C@H](Cc2ccccc2)N(C)C(=O)[C@H](CO)NC(=O)[C@H]([C@@H](C)O)NC(=O)[C@H]([C@@H](C)O)NC(=O)[C@H](CC(=O)O)NC1=O [Example 1-6, Ac*-F-V-D-T-T-S-(N-Me)F-(p-CF3)F-(N-Me)A-E-S-P-C*-G-NH2] ({CH2CO}-FVDTTS[NMeF][Phe(4-CF3)][NMeA]ESPCG-NH2; thioether N-13) | 97 | 7.92
CC(C)[C@@H]1NC(=O)[C@H](Cc2ccccc2)NC(=O)CSC[C@@H](C(=O)NCC(N)=O)NC(=O)[C@@H]2CCCN2C(=O)[C@H](CO)NC(=O)[C@H](CCC(=O)O)NC(=O)[C@H](C)N(C)C(=O)[C@H](Cc2ccc(-c3ccccc3)cc2)NC(=O)[C@H](Cc2ccccc2)N(C)C(=O)[C@H](CO)NC(=O)[C@H]([C@@H](C)O)NC(=O)[C@H]([C@@H](C)O)NC(=O)[C@H](CO)NC1=O [Example 1-12, Ac*-F-V-S-T-T-S-(N-Me)F-B-(N-Me)A-E-S-P-C*-G-NH2] ({CH2CO}-FVSTTS[NMeF][Bip][NMeA]ESPCG-NH2; thioether N-13) | 87 | 
CC(C)[C@@H]1NC(=O)[C@H](Cc2ccccc2)NC(=O)CSC[C@@H](C(=O)NCC(N)=O)NC(=O)[C@@H]2CCCN2C(=O)[C@H](C)NC(=O)[C@H](CCCCN)NC(=O)[C@H](C)N(C)C(=O)[C@H](Cc2ccc(-c3ccccc3)cc2)NC(=O)[C@H](C)N(C)C(=O)[C@H](Cc2ccccc2)NC(=O)[C@H]([C@@H](C)O)NC(=O)[C@H]([C@@H](C)O)NC(=O)[C@H](CC(N)=O)NC1=O [Example 1-23, Ac*-F-V-N-T-T-F-(N-Me)A-B-(N-Me)A-K-A-P-C*-G-NH2] ({CH2CO}-FVNTTF[NMeA][Bip][NMeA]KAPCG-NH2; thioether N-13) | 36 | 
CC(C)[C@@H]1NC(=O)[C@H](Cc2ccccc2)NC(=O)CSC[C@@H](C(=O)NCC(N)=O)NC(=O)[C@@H]2CCCN2C(=O)[C@H](C)NC(=O)[C@H](CCCCN)NC(=O)[C@H](C)N(C)C(=O)[C@H](Cc2ccc(-c3ccccc3)cc2)NC(=O)[C@H](C)N(C)C(=O)[C@H](Cc2ccccc2)NC(=O)[C@H]([C@@H](C)O)NC(=O)[C@H]([C@@H](C)O)NC(=O)[C@H](C)NC1=O [Example 1-22, Ac*-F-V-A-T-T-F-(N-Me)A-B-(N-Me)A-K-A-P-C*-G-NH2] ({CH2CO}-FVATTF[NMeA][Bip][NMeA]KAPCG-NH2; thioether N-13) | 49 | 7.92
